In article PMC9653258, “NDUFS3 knockout cancer cells and molecular docking reveal specificity and mode of action of anti-cancer respiratory complex I inhibitors” (Open Biology, 2022):
pIC50: −log10 of the molar value. Like-named read-outs stand apart in the source and are kept apart here.

Tests used:
[1] = tested on: NDUFS3^+/+ and NDUFS3^−/− SKOV3, HCT116 and B16-F10 cells; assay: Specificity assay: proliferation of NDUFS3^+/+ versus NDUFS3^−/− cells, Incucyte; assay type: cell-based, human, murine; conditions: EVP 4593 100 nM (SKOV3, HCT116), 200 nM (B16-F10); BAY 87-2243 1 µM, 20 µM (B16-F10); IACS-010759 1 µM, 5 µM (B16-F10); 72 h
Procedure: (§1) Cell proliferation and morphology were assessed using the Incucyte Live-imaging System (Sartorius) and proliferation was quantified through time-lapse image acquisition and metrics application.
(§2) Briefly, 2.5 × 10^3 SKOV3/well, 2 × 10^3 HCT116/well and 1 × 10^3 B16-F10/well were seeded in 96-well plates in high-glucose DMEM and incubated overnight to allow cells attachment. For specificity assays, NDUFS3 wild-type and knockout cells were seeded simultaneously, and the same confluence mask was applied for subsequent analysis. […] Cell growth was evaluated by Incucyte system phase contrast software (confluence metrics), which provides an occupied area average (% of confluence) per image/per well. For data in electronic supplementary material, figures S1 and S2, the analysis was performed using % of confluence metric per scan normalized on treatment starting point (time 0). For data in figures 1 and 2, the percentage of cell confluence normalized on time 0 for each inhibitor's treatment was subsequently normalized to untreated control. At least three replicate experiments were performed for each treatment condition.

[2] = tested on: SKOV3, HCT116 and B16-F10 cells; assay: Apoptotic cell death, Incucyte Caspase-3/7 green dye (all cell models); assay type: cell-based, human, murine; conditions: 72 h
Procedure: (§7) Cells (SKOV3, HCT116 and B16-F10) were seeded in a 96-wells plate in high glucose DMEM, as described above. Drugs were added after 24 h, in presence of 5 µM Incucyte Caspase-3/7 green dye following the manufacturer's protocol. Then, the plate was placed in Incucyte for 72 h and images (4/well) were captured at 10× magnification with 2 h intervals, both in phase contrast and fluorescent green channel. For each cell line, staurosporine (100 nM, Sigma-Aldrich #S4400) treatment was performed as a positive control. For each experimental condition, the masks for fluorescent objects identification were set by the Incucyte integrated analysis software. Total and green positive cells were counted at 10× magnification in three fields of view per condition, and data are expressed as percentage of apoptotic cells [(number of green cells/number of total cells) × 100].

[3] = tested on: B16-F10 cells (NDUFS3^+/+); assay: Cell proliferation, Incucyte live-imaging (confluence); assay type: cell-based, murine
Procedure: as §1, §2

[4] = tested on: mitochondrial respiration of SKOV3, HCT116 and B16-F10 cells; assay: Microrespirometry (Seahorse XFe, OCR), stated across cell models; assay type: cell-based, human, murine
Procedure: (§3) Mitochondrial respiration was measured using the protocol described for the Seahorse XFe Cell Mito Stress Test Kit (Agilent #103015-100) following the manufacturer instructions. Briefly, 12 × 10^3 cells/well (SKOV3, HCT116) and 8 × 10^3 (B16-F10) were seeded in 80 µl of DMEM medium into XFe96 cell culture plates and incubated for 48 h (HCT116) and for 24 h (SKOV3, B16-F10) at 37°C and 5% CO2. Complete growth medium was replaced with 180 µl of XF medium (Agilent #103575-100) supplemented with 10 mM glucose, 1 mM sodium pyruvate, 2 mM L-glutamine, at pH 7.4. For temperature and pH equilibration, cells were incubated at 37°C for 30 min. Three oxygen consumption rate (OCR) baseline measurements were followed by injection of either vehicle or different concentrations of CI-inhibitors and subsequent measurements; 1 µM oligomycin, carbonyl cyanide-p-trifluoromethoxyphenylhydrazone (FCCP), 1 µM rotenone and 1 µM antimycin A were sequentially added to each well. FCCP concentrations were previously optimized by titration and were 0.5 µM for SKOV3, 0.75 µM for HCT116 and 1 µM for B16-F10, respectively. At the end of the assay, medium was removed and sulforhodamine B (SRB) assay was performed to determine protein content for normalization. Briefly, plates were incubated with 10% trichloroacetic acid (TCA) for 1 h at 4°C to fix the cells. Five washes in water were carried out. Once the plates were dry, proteins were stained by incubation with 0.4% SRB for 30 min at RT. SRB was solubilized with 10 mM Tris and absorbance at 560 nm was determined using a Victor2 plate reader (Perkin-Elmer). Data (pmol min^−1) were normalized to blank corrected SRB absorbance.

[5] = tested on: mitochondrial respiration of SKOV3 cells; assay: Microrespirometry (Seahorse XFe, oxygen consumption rate); assay type: cell-based, human; conditions: for pIC50: Homo sapiens, read-out: IC50 (residual OCR, concentration-response)
Procedure: as §3

[6] = tested on: mitochondrial respiration of HCT116 cells; assay: as above; assay type: cell-based, human; conditions: for pIC50: Homo sapiens, read-out: IC50 (residual OCR, concentration-response)
Procedure: as §3

[7] = tested on: mitochondrial respiration of B16-F10 cells; assay: as above; assay type: cell-based, murine; conditions: for pIC50: Mus musculus
Procedure: as §3

[8] = tested on: HCT116 cells (NDUFS3^+/+); assay: Cell proliferation, Incucyte live-imaging (confluence); assay type: cell-based, human
Procedure: as §1, §2

[9] = tested on: SKOV3 cells (NDUFS3^+/+); assay: as above; assay type: cell-based, human
Procedure: as §1, §2

[10] = tested on: CI (respiratory complex I) in permeabilized SKOV3, HCT116 and B16-F10 cells; assay: Mitochondrial ATP synthesis rate, CI-driven, digitonin-permeabilized cells (luciferin/luciferase); assay type: cell-based, human, murine; conditions: optimized concentrations; all the investigated cell models
Procedure: The rate of mitochondrial ATP synthesis was measured in digitonin-permeabilized CI competent cells by using a luciferin/luciferase assay as previously described with minor modifications [47]. Chemiluminescence was determined as a function of time with a luminometer (Sirius L Tube, Titertek-Berthold, Pforzheim, Germany). After trypsinization, cells (10 × 10^6 ml^−1) were suspended in a buffer containing 150 mM KCl, 25 mM Tris–HCl, 2 mM EDTA (ethylenediaminetetraacetic acid), 0.1% bovine serum albumin, 10 mM potassium phosphate, 0.1 mM MgCl2, pH 7.4, kept at room temperature for 15 min, then incubated with 50 µg ml^−1 digitonin until 90–100% of cells were positive to Trypan Blue staining. Aliquots of 3 × 10^5 permeabilized cells were incubated in the same buffer in the presence of the adenylate kinase inhibitor P1,P5-di(adenosine-5′) pentaphosphate (0.1 mM, Sigma-Aldrich #A2754) and 10 µl of the luciferin/luciferase assay reagent (Sigma-Aldrich #FLAAM-5VL). Then, ATP synthesis rate was determined after the sequential addition of the following substrates and inhibitors. […] Then, CI inhibitors were added at the optimized concentrations that completely suppress maximal respiration previously determined by titration with Seahorse. […]

[11] = tested on: NDUFS3^−/− cells (SKOV3^−/−, HCT116^−/−, B16-F10^−/−); assay: Proliferation of CI-deficient cells, Incucyte (all three models); assay type: cell-based, human, murine; conditions: tested concentrations (up to 1 µM)
Text: (§4) Human ovarian cancer cell line SKOV3 and murine melanoma cell line B16-F10 were purchased from ATCC (#HTB-77; #CRL-6475, Manassas, VA, USA). Human colorectal cancer cell line HCT116 was authenticated using […]dentifiler kit (Applied Biosystem #4322288) and its STR profile corresponded to the putative background. Mitochondrial DNA (mtDNA) was sequenced by Sanger sequencing as previously described, to ensure wild-type genotype. The results are available upon request. NDUFS3 knockout cells, referred as SKOV3^−/−, HCT116^−/− and B16-F10^−/−, were generated by genome editing as previously reported. Briefly, CRISPR/Cas9 system was used to introduce a frameshift mutation in NDUFS3 gene in SKOV3 human cell line and Ndufs3 gene in B16-F10 murine cell line, using exon 2 targeting guide […] and exon 3 targeting guide […], respectively. […]
as §1
(§5) Briefly, 2.5 × 10^3 SKOV3/well, 2 × 10^3 HCT116/well and 1 × 10^3 B16-F10/well were seeded in 96-well plates in high-glucose DMEM and incubated overnight to allow cells attachment. […] Cell growth was evaluated by Incucyte system phase contrast software (confluence metrics), which provides an occupied area average (% of confluence) per image/per well. […]

[12] = tested on: SKOV3 cells; assay: Apoptotic cell death, Incucyte Caspase-3/7 green dye; assay type: cell-based, human; conditions: 72 h
Procedure: as §7

[13] = tested on: B16-F10^−/− cells (NDUFS3 knockout); assay: Proliferation of CI-deficient cells, Incucyte; assay type: cell-based, murine
Text: as §4, §1, §5

[14] = tested on: SKOV3^−/− cells (NDUFS3 knockout); assay: Proliferation of CI-deficient cells, Incucyte; assay type: cell-based, human
Text: (§6) Human ovarian cancer cell line SKOV3 and murine melanoma cell line B16-F10 were purchased from ATCC (#HTB-77; #CRL-6475, Manassas, VA, USA). Human colorectal cancer cell line HCT116 was authenticated using […]dentifiler kit (Applied Biosystem #4322288) and its STR profile corresponded to the putative background. Mitochondrial DNA (mtDNA) was sequenced by Sanger sequencing as previously described, to ensure wild-type genotype. The results are available upon request. NDUFS3 knockout cells, referred as SKOV3^−/−, HCT116^−/− and B16-F10^−/−, were generated by genome editing as previously reported. Briefly, CRISPR/Cas9 system was used to introduce a frameshift mutation in NDUFS3 gene in SKOV3 human cell line and Ndufs3 gene in B16-F10 murine cell line, using exon 2 targeting guide […] and exon 3 targeting guide […], respectively. Instead, zinc finger endonuclease system was used to obtain HCT116 NDUFS3 knockout. Plasmids containing cDNA of NDUFS3-targeted zinc finger endonucleases (Sigma-Aldrich #CKOZFND15186) were purified and transcribed in vitro. The pool of zinc finger endonucleases mRNAs was transfected into 70% confluent HCT116 cells. The resulting heterozygous clones were subjected to a subsequent second transfection with NDUFS3 zinc finger pool and led to the selection of homozygous frameshift NDUFS3 mutants.
as §1, §2

[15] = tested on: HCT116^−/− cells (NDUFS3 knockout); assay: Proliferation of CI-deficient cells, Incucyte; assay type: cell-based, human
Text: as §6, §1, §2

[16] = tested on: HCT116 cells; assay: Apoptotic cell death, Incucyte Caspase-3/7 green dye; assay type: cell-based, human; conditions: 72 h
Procedure: as §7

[17] = 1 µM (highest concentration applied)
[18] = range over SKOV3, HCT116, B16-F10, read-out: IC50 of mitochondrial respiration (range over cell lines)
[19] = B16-F10, figure 4a, read-out: IC50 (residual OCR, concentration-response)
[20] = metformin, dose-dependent over the tested concentrations

SMILES: Cc1cc(-c2nc(-c3ccc(OC(F)(F)F)cc3)no2)nn1Cc1ccnc(N2CCN(C3CC3)CC2)c1 [BAY 87-2243, 1-cyclopropyl-4-(4-[(5-methyl-3-{3-[4-(trifluoromethoxy)phenyl]-1,2,4-oxadiazol-5-yl)-1H-pyrazol-1-yl)methyl]pyridin-2-yl) piperazine]
- effect on cell proliferation at optimized concentrations, NDUFS3^+/+ versus CI-defective counterparts [1]: reduced cell proliferation of NDUFS3^+/+ cells only
- apoptosis (percentage of cells) ([2]; tested BAY 87-2243 concentrations): very low percentage of cells
- reduction of cell growth after 72 h treatment [3, 17]: 28%
- pIC50 ([4]; human models (SKOV3, HCT116), read-out: IC50 (mitochondrial respiration)): 6.77 to 6.94
- pIC50 [4, 18]: 5.15 to 6.92
- lowest concentration that completely inhibited mitochondrial respiration (abolished OCR) [5]: 1 µM
- pIC50 ([5]; SK-OV-3, figure 4a): 6.94
- lowest concentration that completely inhibited mitochondrial respiration (abolished OCR) [6]: 1 µM
- pIC50 ([6]; HCT-116, figure 4a): 6.76
- concentration required to suppress maximal OCR (abolished OCR) ([7]; B16-F10): 20 µM
- pIC50 [7, 19]: 5.15
- pIC50 ([7]; murine B16-F10 cells, read-out: IC50 (mitochondrial respiration)): 5.15
- fold less efficient in murine B16-F10 cells compared to human models ([7]; ratio of IC50, B16-F10 versus human models): 50 fold
- reduction of cell growth after 72 h treatment [8, 17]: 20%
- reduction of cell growth after 72 h treatment [9, 17]: 38%
- effect on CI-driven ATP synthesis [10]: strongly inhibit
- effect on CI-deficient cancer cell growth [11]: unaffected

SMILES: Nc1ccc2ncnc(NCCc3ccc(Oc4ccccc4)cc3)c2c1 [EVP 4593, N4-[2-(4-phenoxyphenyl)ethyl]-4,6-quinazolinediamine]
- effect on cell proliferation at optimized concentrations, NDUFS3^+/+ versus CI-defective counterparts [1]: reduced cell proliferation of NDUFS3^+/+ cells only
- apoptotic cell death ([12]; 20 µM): 24.6%
- apoptotic cell death ([2]; 2.5 µM): modest percentage of dead cells
- massive apoptotic cell death ([2]; optimized concentration (100 nM SKOV3 and HCT116, 200 nM B16-F10)): not detected
- decrease in cell proliferation after 72 h ([3]; 2.5–20 µM): 66–84%
- concentration causing reduction of NDUFS3^−/− cell growth ([13]; B16-F10 NDUFS3^−/−): 20 µM
- concentration range completely suppressing mitochondrial respiration ([4]; in our models (SKOV3, HCT116, B16-F10)): 100 to 200 nM
- pIC50 [4, 18]: 7.52 to 7.96
- lowest concentration able to fully curb mitochondrial respiration [5]: 100 nM
- pIC50 ([5]; SK-OV-3, figure 4a): 7.96
- lowest concentration able to fully curb mitochondrial respiration [6]: 100 nM
- pIC50 ([6]; HCT-116, figure 4a): 7.89
- lowest concentration able to fully curb mitochondrial respiration ([7]; B16-F10): 200 nM
- pIC50 [7, 19]: 7.52
- decrease in cell proliferation after 72 h ([8]; 2.5–20 µM): 52–74%
- decrease in cell proliferation after 72 h ([9]; 2.5–20 µM): 49–62%
- effect on CI-driven ATP synthesis [10]: strongly inhibit
- concentration causing reduction of NDUFS3^−/− cell growth ([14]; SKOV3 NDUFS3^−/−): 20 µM
- concentration causing reduction of NDUFS3^−/− cell growth ([15]; HCT116 NDUFS3^−/−): 10 to 20 µM
- apoptotic cell death ([16]; 20 µM): 77.6%

SMILES: Cc1nc(-c2nc(-c3ccc(OC(F)(F)F)cc3)no2)nn1Cc1cccc(N2CCC(S(C)(=O)=O)CC2)c1 [IACS-010759]
- effect on cell proliferation at optimized concentrations, NDUFS3^+/+ versus CI-defective counterparts [1]: reduced cell proliferation of NDUFS3^+/+ cells only
- lowest concentration that completely inhibited mitochondrial respiration (abolished OCR) [5]: 1 µM
- lowest concentration that completely inhibited mitochondrial respiration (abolished OCR) [6]: 1 µM
- concentration required to suppress maximal OCR (abolished OCR) ([7]; B16-F10): 5 µM

SMILES: CN(C)C(=N)NC(=N)N.Cl [metformin, 1,1-dimethylbiguanide hydrochloride]
- apoptotic cell death (portion of the cells) ([12]; 2.5 mM): 2.8%
- reduction of cell growth after 72 h [3, 20]: 24–62%
- concentrations at which NDUFS3^−/− cell proliferation was reduced (CI-independent antiproliferative effect) ([13]; metformin, B16-F10^−/−, only at high concentrations): 10 to 20 mM
- decrease of basal respiration (OCR) ([4]; acute injection, only at the highest concentration (50 mM), independently from the cell model): 25–35%
- concentration abolishing maximal respiration ([4]; cells pre-incubated (24 h)): 50 mM
- pIC50 ([4]; range over SKOV3, HCT116, B16-F10, 24 h pre-incubation, read-out: IC50 of mitochondrial respiration (range over cell lines)): 2.87 to 3.65
- pIC50 ([5]; SK-OV-3, pre-incubated 24 h before OCR measurement, figure 4a): 3.26
- concentration abolishing basal OCR ([5]; pre-incubation for 24 h): 2 mM
- pIC50 ([6]; HCT-116, pre-incubated 24 h before OCR measurement, figure 4a): 3.65
- concentration abolishing basal OCR ([6]; pre-incubation for 24 h): 2 mM
- pIC50 ([7]; B16-F10, pre-incubated 24 h before OCR measurement, figure 4a, read-out: IC50 (residual OCR, concentration-response)): 2.87
- concentration abolishing basal OCR ([7]; pre-incubation for 24 h, B16-F10): 10 mM
- reduction of cell growth after 72 h [8, 20]: 46–77%
- reduction of cell growth after 72 h [9, 20]: 58–90%
- concentrations at which NDUFS3^−/− cell growth was reduced (CI-independent antiproliferative effect) ([14]; metformin, SKOV3^−/−): all the tested concentrations
- concentrations at which NDUFS3^−/− cell growth was reduced (CI-independent antiproliferative effect) ([15]; metformin, HCT116^−/−): all the tested concentrations
- apoptotic cell death ([16]; 2.5 mM): comparable to the untreated control
